Reference: ChEMBL document CHEMBL1126220, “Synthesis and antifolate properties of 5,10-ethano-5,10-dideazaaminopterin” (J Med Chem, 1992)

Experiments:
[1] = Influx with respect to the MTX.; assay type: functional
[2] = system: L1210; experiment: Concentration required to inhibit 50% growth of L1210 cells in culture.; assay type: functional, cell-based; details: Mus musculus
[3] = molecular target: T1, Dihydrofolate reductase (Mus musculus, UniProt P00375); experiment: Inhibition of the dihydrofolate reductase enzyme(DHFR) derived from L1210 murine leukemia cells.; assay type: cell-based
T1 sequence (P00375 whole entry): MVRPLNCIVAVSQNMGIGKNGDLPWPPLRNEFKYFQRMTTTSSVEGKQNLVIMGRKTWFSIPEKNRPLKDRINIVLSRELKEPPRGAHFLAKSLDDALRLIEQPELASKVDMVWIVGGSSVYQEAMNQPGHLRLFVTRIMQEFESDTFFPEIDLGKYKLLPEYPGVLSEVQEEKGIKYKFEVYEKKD

Row | Structure (SMILES) | Relative influx [1] | IC50 [2] [nM] | Ki [3] [nM]
1 | CCC(Cc1cnc2nc(N)nc(N)c2c1)c1ccc(C(=O)NC(CCC(=O)O)C(=O)O)cc1 (stereo not given) | 1.32 |  | 
2 | Nc1nc(N)c2c3c(cnc2n1)CC(c1ccc(C(=O)NC(CCC(=O)O)C(=O)O)cc1)CC3 (stereo not given) | 3.3 | 4.5 | 0.017
3 | CC(Cc1cnc2nc(N)nc(N)c2c1)c1ccc(C(=O)NC(CCC(=O)O)C(=O)O)cc1 (stereo not given) | 1.43 |  | 
